In PubChem BioAssay (NCI) one finds GI50 and TGI data, which are given here for 15 molecules.

What all share (experiment): NCI-60 cell line screen, 48 h
In assay [1] the test system is HCT-116 colon.
The test system of assay [2] is OVCAR-4 ovarian.
The subject of assay [3] is HCT-15 colon.
For assay [4], the system named is MALME-3M melanoma.
For assay [5], the system named is SF-539 CNS.
The subject of assay [6] is SN12C renal.
Assay [7] has as its system NCI-H460 lung.
Assay [8] relates to SR leukemia.
The test system of assay [9] is SK-OV-3 ovarian.
Assay [10] has as its system NCI/ADR-RES ovarian.

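Compound exposure: 48 hours, 5 concentrations, 96-well plates. GI50 is the concentration that inhibits growth by half. The concentration for full growth arrest is given as TGI.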

Regarding `CCN(CC)c1ccc(/C=C\c2cc(C)c3cc(C)ccc3n2)cc1`, the GI50 in assay [1] is 3.2 µM; in assay [2], 9.63 µM; in assay [3], 2.32 µM; in assay [4], 4.68 µM; in assay [5], 3.79 µM; in assay [6], 11.7 µM. The GI50 in assay [7] is 3.51 µM; in assay [8], 3410 nM; in assay [9], 4.63 µM; in assay [10], 3.1 µM. Besides, the TGI in [1] was over 100 µM; in assay [2] it was over 100 µM; in assay [3], over 100 µM; in assay [4], over 100 µM; in assay [5], 46.8 µM; in assay [6], over 100 µM. Besides, the TGI in assay [7] is 24.5 µM; in assay [8], over 100 µM; in [9] it was over 100 µM; in assay [10], over 100 µM.

As for `C1CC[N-]CC1.C1CC[N-]CC1.C1CC[N-]CC1.C1CC[N-]CC1.[Cl][Rh][Cl]`, the GI50 in assay [1] was 4.75 µM; in assay [2] it was 5.43 µM; in [3] it was 41.2 µM; in assay [4] it was 6.64 µM; in assay [5], 5.15 µM; in [6], 1.4 µM. Further, the GI50 was 2.87 µM in [7], 4750 nM in [8], 14.8 µM in assay [9] and over 100 µM in assay [10]. Besides, the TGI in assay [1] was over 100 µM; in assay [2], over 100 µM; in [3] it was over 100 µM; in assay [4], 43.4 µM; in assay [5], over 100 µM; in assay [6], over 100 µM. In addition, the TGI in [7] is 26.5 µM; in [8] it was 42 µM; in assay [9] it was over 100 µM; in [10], over 100 µM.

With `c1ccc(Cc2nc3ccc(Nc4ncnc5ccccc45)cc3[nH]2)cc1`, the GI50 in [1] is over 25 µM; in [2], over 25 µM; in assay [3], over 25 µM; in assay [4] it was over 25 µM; in assay [5], over 25 µM; in [6], 11.1 µM. The GI50 is over 25 µM in assay [7], over 25000 nM in [8], 7.03 µM in assay [9] and over 25 µM in assay [10]. The TGI in [1], in [2], in assay [3], in assay [4], in assay [5] and in assay [6] was over 25 µM in each case. The TGI in assay [7], in [8], in [9] and in [10] was over 25 µM in each case.

Turning to `NC(=O)c1cnc(N[C@@H]2CCCC[C@@H]2N)nc1Nc1cccc(-n2nccn2)c1`, the GI50 is 2.3 µM in [1]; 7.01 µM in assay [2]; 3.81 µM in assay [3]; 3.06 µM in assay [4]; 5.44 µM in [5]; 4.13 µM in [6]. The GI50 is 3.42 µM in assay [7], 2230 nM in assay [8], 4.14 µM in assay [9] and 14.6 µM in assay [10]. Also, the TGI worked out at 7.7 µM in assay [1]; 19.6 µM in assay [2]; 14.9 µM in assay [3]; 10.4 µM in assay [4]; 17.2 µM in assay [5]; 17.6 µM in [6]. The TGI amounted to 12.6 µM in assay [7], 6.5 µM in [8], 15.1 µM in assay [9] and 30.6 µM in [10].

As to `COc1ccccc1-[n+]1cc(-c2ccc(-c3ccccc3)cc2)n2c1CCCCC2`, the GI50 is 0.231 µM in assay [1]; 0.116 µM in [2]; 4.35 µM in assay [3]; 0.158 µM in [4]; 0.348 µM in assay [5]; 0.288 µM in assay [6]. Further, the GI50 is 0.388 µM in assay [7], 304 nM in assay [8], 0.368 µM in assay [9] and 19.8 µM in [10]. In addition, the TGI is 11.9 µM in [1]; 12.5 µM in assay [2]; 20.2 µM in [3]; 0.869 µM in assay [4]; 13.2 µM in assay [5]; 10.5 µM in assay [6]. Also, the TGI in [7] was 11.5 µM; in assay [8] it was 24.1 µM; in [9] it was 5.82 µM; in [10] it was 60.4 µM.

In the case of `Cc1ccc(C(=O)Nc2ccc(CN3CCN(C)CC3)c(C(F)(F)F)c2)cc1C#Cc1cnc(N)cc1C#N`, the GI50 in assay [1] was 0.0852 µM; in [2], 0.0998 µM; in [3], 0.13 µM; in assay [4] it was 0.0276 µM; in assay [5], 0.277 µM; in [6], 0.0918 µM. Also, the GI50 in [7] was 0.0915 µM; in assay [8] it was 162 nM; in assay [9] it was 0.186 µM; in assay [10], 0.27 µM. The TGI is 0.642 µM in assay [1]; 1.42 µM in [2]; 0.762 µM in assay [3]; 0.187 µM in [4]; 0.926 µM in assay [5]; 0.733 µM in assay [6]. Also, the TGI worked out at 0.968 µM in assay [7], 1.23 µM in assay [8], 2.5 µM in assay [9] and 1.68 µM in [10].

For `O=Cc1c(-c2cc(O)ccc2O)nc2sccn12`, the GI50 is 14 µM in assay [1]; 14.5 µM in assay [2]; 12.5 µM in assay [3]; 10.9 µM in assay [4]; 20.3 µM in [5]; 12.8 µM in assay [6]. Further, the GI50 in assay [7] was 18 µM; in assay [8], 640 nM; in assay [9], 78.5 µM; in [10], 16 µM. Also, the TGI in assay [1] stood at 27.3 µM; in [2], 32.9 µM; in [3] it was 39.3 µM; in assay [4], 25 µM; in assay [5], 52 µM; in assay [6], 34.5 µM. Further, the TGI in [7] is 40.8 µM; in assay [8], 3.42 µM; in assay [9] it was over 100 µM; in assay [10], 48.5 µM.

As for `COCCn1cc(-c2csc(-c3c[nH]c4ccccc34)n2)c2cccnc21`, the GI50 in [1] is 3.63 µM; in [2] it was 1.76 µM; in [3], 2.34 µM; in assay [4] it was 3.58 µM; in assay [5], 5.91 µM; in assay [6], over 100 µM. Further, the GI50 in assay [7] is 3.4 µM; in assay [8] it was 3020 nM; in assay [9] it was 14.8 µM; in assay [10], 1.76 µM. Further, the TGI in assay [1], in assay [2], in assay [3], in [4], in assay [5] and in [6] was over 100 µM in each case. Moreover, the TGI in assay [7] was over 100 µM; in assay [8], over 100 µM; in assay [9], over 100 µM; in assay [10], 6.9 µM.

On to `C=C1[C@@H](C)[C@H]2[C@H](Cc3ccccc3)NC(=O)[C@]23OC(=O)/C=C/[C@H](O)CCC[C@@H](C)C/C=C/[C@H]3[C@@H]1O`, for which the TGI in [1] is over 100 µM; in assay [2], over 100 µM; in assay [3], 93.2 µM; in [4] it was over 89 µM; in [5] it was 43.8 µM; in assay [6], over 100 µM. The TGI in assay [7] was 57.8 µM; in [8] it was over 100 µM; in [9] it was over 100 µM; in assay [10] it was 91.1 µM.

`CN(C)CCCn1c2c(c3cnccc3c1=O)C(=O)c1ccccc1-2`: the GI50 was 0.245 µM in [1]; 0.601 µM in assay [2]; 0.318 µM in assay [3]; 0.287 µM in assay [4]; 0.377 µM in [5]; 0.289 µM in assay [6]. The GI50 in assay [7] is 0.39 µM; in [8], 95 nM; in assay [9], 1.96 µM; in [10], 0.483 µM. Also, the TGI in assay [1] came out at 11.7 µM; in [2], 8.89 µM; in assay [3] it was 10.2 µM; in [4] it was 1.05 µM; in [5], 2.9 µM; in assay [6] it was 4.35 µM. Further, the TGI was 1.75 µM in assay [7], 0.793 µM in assay [8], 28.7 µM in assay [9] and 10.8 µM in [10].

As to `CCN(Cc1cccc(OC)c1)c1ccc(CO)c(Cl)c1`, the GI50 is 0.0731 µM in assay [1]; 0.291 µM in assay [2]; 14.8 µM in assay [3]; 17.5 µM in [4]; 19 µM in assay [5]; 12.9 µM in assay [6]. Also, the GI50 in assay [7] was 0.272 µM; in assay [8], 22900 nM; in assay [9], 8.52 µM; in assay [10] it was 13.7 µM. Further, the TGI came out at 11.2 µM in [1]; 14.3 µM in assay [2]; 66.6 µM in assay [3]; 40.9 µM in [4]; 40.5 µM in assay [5]; 32.1 µM in assay [6]. Also, the TGI in assay [7] was determined as 14.1 µM; in assay [8], 66.4 µM; in assay [9] it was 33.6 µM; in assay [10], 43.4 µM.

Regarding `COc1ccc(-n2c(SCc3cc(OC)c(OC)c(OC)c3)nc3ccc(C)cc3c2=O)c(OC)c1`, the GI50 is 3.85 µM in [1]; 4.65 µM in assay [2]; 4.2 µM in assay [3]; 2.97 µM in assay [4]; 2.88 µM in assay [5]; 5.1 µM in assay [6]. The GI50 in [7] is 3.68 µM; in [8], 1870 nM; in assay [9], 4.96 µM; in [10] it was 2.68 µM. For the same molecule, the TGI was over 100 µM in assay [1]; over 100 µM in assay [2]; over 100 µM in assay [3]; over 100 µM in assay [4]; 7.82 µM in [5]; over 100 µM in assay [6]. Besides, the TGI was over 100 µM in [7], 25.5 µM in [8], over 100 µM in assay [9] and over 100 µM in assay [10].

Regarding `CC(=O)OC[C@H]1O[C@@H](n2ccc(=O)[nH]c2=O)[C@H](OC(C)=O)[C@@H]1OC(C)=O`, the GI50 in [1], in assay [2], in assay [3], in assay [4], in assay [5] and in [6] was over 100 µM in each case. Besides, the GI50 in [7] is over 100 µM; in [8], over 100000 nM; in assay [9], over 100 µM; in [10] it was over 100 µM. Moreover, the TGI in assay [1], in assay [2], in assay [3], in assay [4], in assay [5] and in assay [6] was over 100 µM each time. The TGI in [7], in [8], in assay [9] and in [10] was over 100 µM throughout.

On to `O=C(O)c1cc2ccccc2c(O)c1O`, for which the TGI in [1] was 30.7 µM; in assay [2], 35 µM; in assay [3], 42.6 µM; in assay [4] it was 3.78 µM; in [5], 38.1 µM; in assay [6], 31.5 µM. The TGI in assay [7] was 41.8 µM; in assay [8], over 79 µM; in [9], 29 µM; in [10] it was 41.5 µM.

With `O=C(O)c1ccc2c(c1)Cc1cc([N+](=O)[O-])ccc1-2`, the TGI in [1], in assay [2], in [3], in assay [4], in [5] and in assay [6] was over 100 µM throughout. The TGI in assay [7], in assay [8], in [9] and in [10] was over 100 µM throughout.
